Measurements as given in patent publication US20240287022A1 (Merck Sharp & Dohme LLC, priority 2021, published 2024).

Target: recombinant IL4I1 (Homo sapiens (Human), UniProt Q96RQ9)
Experiment: IL4I1 Enzymatic Assay (Amplex Red/HRP coupled H2O2 detection)
Format: biochemical
Details: 1 nM IL4I1, 1 mM each Phe/Tyr/Trp, four-hour pre-incubation, 120 minutes reaction, top compound concentration of 10000 nM
Protocol: Interleukin 4 inducible protein 1 (IL4I1) is an L-amino oxidase that catalyzes the oxidation of aromatic residues (Phe, Trp and Tyr): L-amino acid+H2O+O2→2-oxo acid+NH3+H2O2. Equal molar of H2O2 and the corresponding alpha-ketoacid are produced when IL4I1 and substrate are added. In this assay, the hydrogen peroxide generated by IL4I1 are then detected through a coupled reaction with Amplex Red (10-acetyl-3,7-dihydroxyphenoxazine) and […] (HRP) to produce Resorufin product that could be detected in the form of fluorescence signals. The assessment of the inhibitory effect of small molecules (EC50) on IL4I1 is measured by the effectiveness of the compounds to inhibit the production of H2O2.
Using this assay, the potency (EC50) of each compound was determined from a ten-point (1:3 serial dilution; top compound concentration of 10000 nM) titration curve using the following outlined procedure. To each well of a black flat-bottom Greiner (Cat #781076) 384 well-plate, 25 nL of compound (0.1% DMSO in final assay volume of 25 μL) was dispensed, followed by the addition of 12.5 μL of 1× assay buffer (50 mM Hepes 7.0 and 0.005% Tween20 (Sigma, Cat #P8341; low peroxide grade)) containing 2 nM of recombinant IL4I1 (R&D Systems, Cat #5684-AO-020). Plates were placed in an ambient temperature humidified chamber for a four-hour pre-incubation with compound. Subsequently, each reaction was initiated by the addition of 12.5 μL 1× assay buffer containing 2 mM of each aromatic amino acids (Phe/Tyr/Trp), 0.1 mM Amplex Red and 2 U/mL of HRP. The final reaction in each well of 25 μL consists of 1 nM of IL4I1, 1 mM of each residues (Phe, Tyr and Trp), 0.05 mM Amplex Red and 1 U/mL of HRP. It should be noted that the concentrations of Amplex Red and HRP used here are in excess such that the conversion of H2O2 to Resorufin product occurs instantaneously and non-rate limiting. Reactions were allowed to proceed for 120 minutes followed by fluorescence readout on a Spectramax with the following set parameters: 544 nm excitation/590 nm emission, 570 nm cutoff (EnVision is an alternative reader). Dose-response curves were generated by plotting percent effect (% product conversion; Y-axis) vs. Log10 compound concentrations (X-axis). EC50 values were calculated using a non-linear regression, four-parameters sigmoidal dose-response model.

recombinant IL4I1, sequence (Q96RQ9 22-567): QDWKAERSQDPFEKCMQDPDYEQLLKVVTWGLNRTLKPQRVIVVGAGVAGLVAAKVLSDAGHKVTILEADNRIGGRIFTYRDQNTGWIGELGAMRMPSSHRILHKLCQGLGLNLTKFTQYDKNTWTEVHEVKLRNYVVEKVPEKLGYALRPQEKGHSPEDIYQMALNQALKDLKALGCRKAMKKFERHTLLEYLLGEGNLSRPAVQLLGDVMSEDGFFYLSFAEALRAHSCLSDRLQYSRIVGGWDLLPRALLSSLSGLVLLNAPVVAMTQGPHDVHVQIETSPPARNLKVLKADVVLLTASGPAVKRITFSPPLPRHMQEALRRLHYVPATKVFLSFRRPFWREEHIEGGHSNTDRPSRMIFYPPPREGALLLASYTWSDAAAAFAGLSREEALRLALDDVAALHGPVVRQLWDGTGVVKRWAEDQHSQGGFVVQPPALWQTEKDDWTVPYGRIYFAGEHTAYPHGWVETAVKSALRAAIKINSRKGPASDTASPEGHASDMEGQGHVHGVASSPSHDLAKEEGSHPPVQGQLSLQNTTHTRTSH

For CC(=O)NCc1ncc(Cc2cc3ccccc3[nH]c2=O)cc1Cl [Example 68, N-((3-chloro-5-((2-oxo-1,2-dihydroquinolin-3-yl)methyl)pyridin-2-yl)methyl)acetamide], the EC50 was 12.3 nM.
Work on O=c1[nH]c2ccccc2cc1Cc1cc(F)c2c(c1)CNC2 [Example 69, 3-((7-fluoroisoindolin-5-yl)methyl)quinolin-2(1H)-one] yielded an EC50 of 10.6 nM.
NS(=O)(=O)c1ccc(Cc2cc3ccccc3[nH]c2=O)cc1Cl [Example 70, 2-chloro-4-((2-oxo-1,2-dihydroquinolin-3-yl)methyl)benzenesulfonamide] gave an EC50 of 8.9 nM.
For NS(=O)(=O)c1c(Cl)cc(Cc2cc3ccccc3[nH]c2=O)cc1Cl [Example 71, 2,6-dichloro-4-((2-oxo-1,2-dihydroquinolin-3-yl)methyl)benzenesulfonamide], the EC50 was 3.7 nM.
With NS(=O)(=O)Cc1ccc(Cc2cc3ccccc3[nH]c2=O)cc1 [Example 72, (4-((2-oxo-1,2-dihydroquinolin-3-yl)methyl)phenyl)methanesulfonamide] the EC50 was 2.2 nM.
Compound CS(=O)(=O)NCc1ccc(Cc2cc3ccccc3[nH]c2=O)cc1 [Example 73, N-(4-((2-oxo-1,2-dihydroquinolin-3-yl)methyl)benzyl)methanesulfonamide] has an EC50 of 6.4 nM.
For COc1cc(CNS(C)(=O)=O)ccc1Cc1cc2ccccc2[nH]c1=O [Example 74, N-(3-methoxy-4-((2-oxo-1,2-dihydroquinolin-3-yl)methyl)benzyl)methanesulfonamide], the EC50 was 6.9 nM.
O=C1CCc2ccc(Cc3cc4ccccc4[nH]c3=O)cc21 [Example 75, 3-((3-oxo-2,3-dihydro-1H-inden-5-yl)methyl)quinolin-2(1H)-one] gave an EC50 of 0.9 nM.
O=C1NCCc2ccc(Cc3cc4ccccc4[nH]c3=O)cc21 [Example 77] showed an EC50 of 4.7 nM.
Compound O=C1NCCc2cc(Cc3cc4ccccc4[nH]c3=O)ccc21 [Example 78, 3-((1-oxo-1,2,3,4-tetrahydroisoquinolin-6-yl)methyl)quinolin-2(1H)-one] has an EC50 of 10.7 nM.
For CC1(c2ccc(Cc3cc4ccccc4[nH]c3=O)cc2)CNC1 [Example 79, 3-(4-(3-methylazetidin-3-yl)benzyl)quinolin-2(1H)-one], the EC50 was 11.5 nM.
CC(C)(O)c1ccc(Cc2cc3ccccc3[nH]c2=O)cc1Cl [Example 80, 3-(3-chloro-4-(2-hydroxypropan-2-yl)benzyl)quinolin-2(1H)-one] showed an EC50 of 3.3 nM.
O=c1[nH]c2ccccc2cc1Cc1ccc2c(c1)S(=O)(=O)CC2 [Example 81, 3-((1,1-dioxido-2,3-dihydrobenzo[b]thiophen-6-yl)methyl)quinolin-2(1H)-one] was tested, and the EC50 was 2.4 nM.
For CC(=O)NCc1ncc(Cc2cc3ccccc3[nH]c2=O)cc1F [Example 82], the EC50 was 10 nM.
Compound CC(=O)N1Cc2ccc(Cc3cc4ccccc4[nH]c3=O)cc2C1 [Example 83, 3-((2-acetylisoindolin-5-yl)methyl)quinolin-2(1H)-one] has an EC50 of 3.8 nM.
In the case of CC(=O)NCc1ccc(Cc2cc3ccccc3[nH]c2=O)cn1 [Example 84, N-((5-((2-oxo-1,2-dihydroquinolin-3-yl)methyl)pyridin-2-yl)methyl)acetamide], the EC50 is reported as 13.8 nM.
O=c1[nH]c2ccccc2cc1Cc1ccc(OC2CCOCC2)nc1 [Example 85, 3-((6-((tetrahydro-2H-pyran-4-yl)oxy)pyridin-3-yl)methyl)quinolin-2(1H)-one] showed an EC50 of 8.7 nM.
CC(=O)c1cccc(Cc2cc3ccccc3[nH]c2=O)c1 [Example 86, 3-(3-acetylbenzyl)quinolin-2(1H)-one] was tested, and the EC50 was 0.9 nM.
In the case of O=C1NCc2cc(F)c(Cc3cc4ccccc4[nH]c3=O)cc21 [Example 87, 3-((6-fluoro-3-ixoisoindolin-5-yl)methyl)quinolin-2(1H)-one], the EC50 is reported as 4.2 nM.
O=c1[nH]c2ccccc2cc1Cc1ccc(OCC2CC2)nc1 [Example 88, 3-((6-(cyclopropylmethoxy)pyridin-3-yl)methyl)quinolin-2(1H)-one] was tested, and the EC50 was 1.3 nM.
O=C1COc2ncc(Cc3cc4ccccc4[nH]c3=O)cc2N1 [Example 89, 7-((2-oxo-1,2-dihydroquinolin-3-yl)methyl)-1H-pyrido[2,3-b][1,4]oxazin-2(3H)-one] was tested, and the EC50 was 4.5 nM.
For CS(=O)(=O)NCc1ncc(Cc2cc3ccccc3[nH]c2=O)cc1Cl [Example 91, N-((3-chloro-5-((2-oxo-1,2-dihydroquinolin-3-yl)methyl)pyridin-2-yl)methyl)methanesulfonamide], the EC50 was 10.9 nM.
N#Cc1cnn2ccc(Cc3cc4ccccc4[nH]c3=O)cc12 [Example 92, 5-((2-oxo-1,2-dihydroquinolin-3-yl)methyl)pyrazolo[1,5-a]pyridine-3-carbonitrile] showed an EC50 of 1.7 nM.
CC(C)(O)CN1Cc2ccc(Cc3cc4ccccc4[nH]c3=O)cc2C1=O [Example 94, 3-((2-(2-hydroxy-2-methylpropyl)-3-oxoisoindolin-5-yl)methyl)quinolin-2(1H)-one] gave an EC50 of 29.6 nM.
In the case of N#Cc1n[nH]c2ccc(Cc3cc4cnccc4[nH]c3=O)cc12 [Example 95, 5-((2-oxo-1,2-dihydro-1,6-naphthyridin-3-yl)methyl)-1H-indazole-3-carbonitrile], the EC50 is reported as 2.5 nM.
With N#Cc1c[nH]c2ccc(Cc3cc4ccccc4[nH]c3=O)nc12 [Example 96, 5-((2-oxo-1,2-dihydroquinolin-3-yl)methyl)-1H-pyrrolo[3,2-b]pyridine-3-carbonitrile] the EC50 was 2 nM.
CC(C)(C#N)c1ccc(Cc2cc3ccccc3[nH]c2=O)cc1 [Example 97, 2-methyl-2-(4-((2-oxo-1,2-dihydroquinolin-3-yl)methyl)phenyl)propanenitrile] gave an EC50 of 1.4 nM.
Compound N#CC1(c2ccc(Cc3cc4ccccc4[nH]c3=O)cc2)CC1 [Example 98, 1-(4-((2-oxo-1,2-dihydroquinolin-3-yl)methyl)phenyl)cyclopropane-1-carbonitrile] has an EC50 of 1 nM.
For N#CC1(c2ccc(Cc3cc4ccccc4[nH]c3=O)cn2)COC1 [Example 99, 3-(5-((2-oxo-1,2-dihydroquinolin-3-yl)methyl)pyridin-2-yl)oxetane-3-carbonitrile], the EC50 was 5.9 nM.
Compound CC(C)(C#N)c1ccc(Cc2cc3cnccc3[nH]c2=O)cc1 [Example 100, 2-methyl-2-(4-((2-oxo-1,2-dihydro-1,6-naphthyridin-3-yl)methyl)phenyl)propanenitrile] has an EC50 of 7.3 nM.
Work on O=c1[nH]c2cnccc2cc1Cc1cccc(OC(F)(F)F)c1 [Example 103, 3-(3-(trifluoromethoxy)benzyl)-1,7-naphthyridin-2(1H)-one] yielded an EC50 of 466 nM.
Compound O=c1[nH]c2cnccc2cc1Cc1ccccc1 [Example 104, 3-benzyl-1,7-naphthyridin-2(1H)-one] has an EC50 of 9180 nM.
O=c1[nH]c2cccnc2cc1Cc1cccc(OC(F)(F)F)c1 [Example 105, 3-(3-(trifluoromethoxy)benzyl)-1,5-naphthyridin-2(1H)-one] showed an EC50 of 619 nM.
Work on O=c1[nH]c2ncccc2cc1Cc1cccc(OC(F)(F)F)c1 [Example 106, 3-(3-(trifluoromethoxy)benzyl)-1,8-naphthyridin-2(1H)-one] yielded an EC50 of 958 nM.
With N#CC1(c2ccc(Cc3cc4ccccc4[nH]c3=O)cc2)CCOCC1 [Example 107, 4-(4-((2-oxo-1,2-dihydroquinolin-3-yl)methyl)phenyl)tetrahydro-2H-pyran-4-carbonitrile] the EC50 was 3.2 nM.
O=C1OCCN1c1ccc(Cc2cc3ccccc3[nH]c2=O)cn1 [Example 108, 3-(5-((2-oxo-1,2-dihydroquinolin-3-yl)methyl)pyridin-2-yl)oxazolidin-2-one] showed an EC50 of 1.9 nM.
Cc1c(Cc2cc3ccccc3[nH]c2=O)cnn1C [Example 109, 3-((1,5-dimethyl-1H-pyrazol-4-yl)methyl)quinolin-2(1H)-one] gave an EC50 of 39.9 nM.
CC(C)(C)n1cc(Cc2cc3ccccc3[nH]c2=O)cn1 [Example 110, 3-((1-(tert-butyl)-1H-pyrazol-4-yl)methyl)quinolin-2(1H)-one] gave an EC50 of 11.5 nM.
Compound O=c1[nH]c2ccccc2cc1Cc1cnn(CC2(C(F)F)CC2)c1 [Example 111, 3-((1-((1-(difluoromethyl)cyclopropyl)methyl)-1H-pyrazol-4-yl)methyl)quinolin-2(1H)-one] has an EC50 of 24.6 nM.
Work on CCn1cc(Cc2cc3ccccc3[nH]c2=O)cn1 [Example 112, 3-((1-ethyl-1H-pyrazol-4-yl)methyl)quinolin-2(1H)-one] yielded an EC50 of 60.5 nM.
O=c1[nH]c2ccncc2cc1Cc1ccc(C2(O)CCC2)cc1 [Example 113, 3-(4-(1-hydroxycyclobutyl)benzyl)-1,6-naphthyridin-2(1H)-one] gave an EC50 of 7 nM.
